This is an account of results in patent US20110098219A1, “System for Curing Hepatic Cancer with Leptin” (KAOHSIUNG MEDICAL UNIVERSITY, priority 2009, published 2011).

The subject of experiment [1] is liver cancer cells (hepatocellular carcinoma cell line). Nature of the experiment: XTT assay, growth of liver cancer cells. The class given is cell-based. On the procedure: Please refer to FIG. 2, which is a view showing leptin's effect on growth of liver cancer cells. As shown in the figure, for acquiring effect of leptin on liver cancer cells, the preferred embodiment uses leptin having different doses, where the high-dose leptin has 100 nano-grams (ng) and the low-dose leptin has 10 ng. The 10 ng leptin is conformed to the physiological concentration of normal human body for observing effect of leptin on the cells. In the other hand, the 100 ng leptin is used to show whether a higher levels of leptin obtains a higher effect on the cells.
Please refer to FIG. 3, which is a view showing MPA's effect on growth of liver cancer cells. As shown in the figure, the preferred embodiment applies MPA having different doses to liver cancer cells.
Please refer to FIG. 4, which is a view showing effect of MPA+leptin on growth of liver cancer cells. As shown in the figure, the preferred embodiment applies MPA combined with leptin to liver cancer cells, where MPA has different doses and leptin has different doses.
Please refer to FIG. 9, which is a view showing reduced effect of MPA+leptin by suppressing leptin receptor expression. As shown in the figure, a 20 nano-moles (nM) of leptin receptor, siRNA, is transferred to cells to be cultured a day and is cultured in a serum-free medium for the next day. Then, the cells are processed with MPA+leptin for 24 hours to be analyzed through XTT assay. […] Thus, it is confirmed that leptin enhances MPA's suppression on the cells through the leptin receptor.
Please refer to FIG. 10A and FIG. 10B, which are views showing apoptosis of cells on increasing expression of leptin receptor and expression of progesterone receptor respectively. As shown in the figures, the preferred embodiment makes ob-Rb plasmid transfected to cells to be cultured a day and is cultured in a serum-free medium for the next day. Then, the cells are processed with MPA+leptin for 24 hours to be analyzed through XTT assay. […] Besides, the long-form Ob-R enhances expression of the progesterone receptor. Again, the preferred embodiment makes PgR plasmid transfected to cells to be cultured a day and is cultured in a serum-free medium for the next day. Then, the cells are processed with MPA+leptin for 24 hours to be analyzed through XTT assay.
Please refer to FIG. 15A to FIG. 16B, which are views showing cells containing very much leptin within; suppressed growth of the cells by using MPA; and STAT3- and MAPK-signal paths of the cells after MPA is applied. As shown in the figures, while leptin is added from outside in state 13 to suppress liver cancer cells with MPA+leptin, the preferred embodiment here transfers expression plasmid of leptin (pcLeptin) to liver cancer cells to be cultured for a day; and a serum-free medium is used for the next day. Then, after the cells are processed with 10^−4M MPA for 24 hours, cell growth is analyzed through XTT assay. In FIG. 15A, leptin gene is transferred to cells for a short time for obtaining very much leptin within the cells by themselves. After applying MPA to the cells for 24 hours, it is confirmed that MPA's suppression on liver cancer cells is enhanced by a lot of leptin self-generated within the cells. Moreover, after obtaining a lot of leptin, medium is collected for immunoprecipitation and further western blotting. […] Then, after the cells are processed with 10^−4 M MPA for 24 hours, JAK/STAT-related proteins are analyzed through western blotting.
(In general: Tetrazolium assays rely on reduction of a dye to a coloured formazan, in cell work by metabolically active cells.)

For the next experiment, the system named is liver cancer cells. Nature of the experiment: Flow cytometry, cell cycle of liver cancer cells. Format: cell-based. To be noted: MPA only, 24 hours. The procedure:
Please refer to FIG. 6A and FIG. 6B, which are views showing effect of MPA+leptin on cell cycle. As shown in the figures, for further recognizing role of MPA+leptin for liver cancer cells, the preferred embodiment applies leptin only, MPA only and MPA+leptin on liver cancer cells for 24 hours and a flow cytometry is used to show their effects on cell cycle. Furthermore, sub-G1/apoptosis parts in the cell cycle are analyzed through student's t-test.
A general note: In flow cytometry, cells or beads pass a laser one at a time.

Experiment [2] relates to cleaved caspase 3, cleaved caspase 7 and cleaved PARP. Nature of the experiment: Western blotting of apoptosis-related proteins. The class given is cell-based. The following applies: 24 hours. The procedure:
Please refer to FIG. 7, which is a view showing effect of MPA+leptin on related proteins for apoptosis. As shown in the figure, through analysis on liver cancer cells after applied with MPA+leptin for 24 hours, observation is done with a focus on changes of their related proteins for apoptosis. When different doses of MPA are combined with different doses of leptin for treatment for 24 hours, cellular proteins of anti-cleaved caspase 3, anti-cleaved caspase 7 and anti-cleaved Poly-ADP-ribose-polymerase (PARP) are processed with western blotting.

Experiment [3] has as its system liver cancer patients. Nature of the experiment: Survival of liver cancer patients treated with MPA after surgery. Format: in vivo, human. To be noted: P value 0.008. The text has this:
In ‘in vitro’ studies and clinical experiments, leptin and MPA are found to have obvious effect on suppressing liver cancer cells and improving patient's survival rate. Thus, the therapeutic drug is formed by combining MAP with leptin to cure liver cancer patients, where the physiological concentration of leptin in a normal human body is almost able to enhance the treatment effect of MPA. MPA is used for treatment in the present invention, where, for obtaining a better effect, leptin is directly combined with MPA or leptin is obtained by increasing the physiological concentration of leptin in the patient at first.
Consequently, the leptin expression can be taken as an index for effectiveness of the hormone therapy (i.e. MPA) after the surgery; and, the survival time of the liver cancer patients can be maintained or even prolonged.

For experiment [4], the system named is liver cancer patients. The following applies: prior researches, FIG. 19B; P value 0.171; cited from earlier work.

On to `CC(=O)O[C@]1(C(C)=O)CC[C@H]2[C@@H]3C[C@H](C)C4=CC(=O)CC[C@]4(C)[C@H]3CC[C@@]21C` [MPA, medroxyprogesterone acetate], for which, in experiment [1] (cells transfected with pcLeptin, 10^-4 M MPA, 24 hours), the “MPA's suppression on liver cancer cells” value was “enhanced”. The “suppressive effect on liver cancer cells” value in experiment [1] (high-dose MPA 10^-4 M, 24 hours) is “obvious suppressive effect”. The “suppressive effect on liver cancer cells” value in experiment [1] (high-dose MPA 10^-4 M, 48 hours) was “the effect is enhanced”. Also, in experiment [1] (low-dose MPA 10^-6 M, 24 hours or 48 hours), the “suppressive effect on liver cancer cells” value is reported as “does not have obvious suppressive effect”. Moreover, in the experiment on liver cancer cells, the “G1 and G2/M” value was “decreased trend”; the S entry was “increased trend”; the sub-G1 entry was “increasing trend”. Also, in experiment [2], the “activation of cleaved caspase 3/7 and cleaved PARP” value is “obviously activated”. Further, the “survival time, patients with higher versus lower leptin expression” value with liver cancer patients [3] is “longer survival time”. Further, in the experiment on liver cancer patients [4], the “association of patient's survival rate with MPA treatment after surgery” value was “did not find significant association”.
